“Also recorded” adds a separate entry of the source.
Key:
CD11b^+ MDSC [1] = assay: qRT-PCR gene expression in treated CD11b+ MDSC; format: cell-based, human; conditions: treated vs untreated CD11b+ MDSC, mRNA
CD11b^+ MDSC [2] = assay: Functional inhibition of tumor cell line-induced CD11b+ MDSC by drugs; conditions: drug-treated CD11b+ MDSC
CD33^+ MDSC [3] = assay: Reversal of suppressive function of tumor cell line-induced CD33+ MDSC by drugs; format: cell-based, human; conditions: drug-treated CD33+ MDSC
CD33^+ MDSC [4] = assay: qRT-PCR gene expression in treated CD33+ MDSC; format: cell-based, human; conditions: treated vs untreated CD33+ MDSC, mRNA
CD33^+ MDSC [5] = assay: Suppression Assay in presence or absence of specific inhibitors of MDSC suppressive mechanisms; format: cell-based, human; conditions: tumor cell line-induced CD33+ MDSC, CD3/CD28-stimulated autologous T cells, with inhibitor
Protocol: Further characterization of tumor-induced canonical CD33^+ MDSC subset by analysis of the expression of putative MDSC suppression genes was performed. For these studies, expression of putative suppression genes was measured in tumor cell line-induced MDSC, including those induced by SCCL-MT1 HNSCC cell line and those induced by 4-998 osteogenic sarcoma, DU 145 prostate carcinoma, CAKI-1 renal cell carcinoma, SK-OV-3 ovarian carcinoma, and SW 608 and SW 732 colorectal adenocarcinoma cell lines (FIG. 6A), and compared to expression levels in normal, non-suppressive CD33^+ myeloid cells from medium only cultures. […] To determine the dominant mechanism of T cell suppression by this canonical CD33^+ MDSC subset, suppression assays were repeated in the presence or absence of specific inhibitors of ARG-1 (nor-NOHA), iNOS (L-NMMA), NOX2 (apocynin), VEGF (neutralizing antibody Avastin), or TGFβ1 (SB431542 or neutralizing antibody 1D11).

CC1=C(/C=C/C(C)=C/C=C/C(C)=C/C(=O)O)C(C)(C)CCC1 [ATRA]
C/EBPβ expression (CD11b^+ MDSC [1]): decreased
HIF1α expression (CD11b^+ MDSC [1]): no change
STAT3 expression (CD11b^+ MDSC [1]): no change
CD11b+ MDSC suppressive function (CD11b^+ MDSC [2]): Functional inhibition
CD33+ MDSC suppressive function (CD33^+ MDSC [3]): Inhibition; also recorded: Reversal
HIF1α expression (CD33^+ MDSC [4]): decreased
STAT3 expression (CD33^+ MDSC [4]): decreased

COc1cc(C(C)=O)ccc1O [apocynin]
suppression of T cell proliferation by CD33+ MDSC (CD33^+ MDSC [5]): statistically significant decreases in suppression

N=C(NO)NCC[C@H](N)C(=O)O [nor-NOHA]
suppression of T cell proliferation by CD33+ MDSC (CD33^+ MDSC [5]): statistically significant decreases in suppression

lipopolysaccharide
ARG-1 expression (CD11b^+ MDSC [1]): increased expression
C/EBPβ expression (CD11b^+ MDSC [1]): further up-regulation
HIF1α expression (CD11b^+ MDSC [1]): further up-regulation
NOX2-component NCF1 expression (CD11b^+ MDSC [1]): increased expression
STAT3 expression (CD11b^+ MDSC [1]): further up-regulation
iNOS expression (CD11b^+ MDSC [1]): increased expression
ARG-1 expression (CD33^+ MDSC [4]): increased expression
C/EBPβ expression (CD33^+ MDSC [4]): further up-regulation
HIF1α expression (CD33^+ MDSC [4]): further up-regulation
NOX2-component NCF1 expression (CD33^+ MDSC [4]): increased expression
STAT3 expression (CD33^+ MDSC [4]): further up-regulation
iNOS expression (CD33^+ MDSC [4]): increased expression

From patent US9746480B2, “Human myeloid derived suppressor cell cancer markers” (University of Southern California, priority 2011, dated 2017)
